Reference: ChEMBL document CHEMBL4507292 (2021)

Columns and labels:
[1] = target: L-type calcium channel, dihydropyridine site (Cav1.2 alpha-1C) (Homo sapiens, UniProt Q13936); experiment: Inhibition of Calcium Channel L-Type, Dihydropyridine at 10 µM in the Eurofins-Panlabs radioligand binding assay (Eurofins_assay_214600); parameters: ligand concentration 0.1 nM, non-specific ligand with concentration 1 µM Nitrendipine, incubation time 90 min, incubation temperature 25 °C; settings: Wistar, rat, rat cerebral cortex preparation, probe [3H] Nitrendipine, 0.1 nM; compound concentration 10 uM; target entry is the homologue from another species
Sequence of L-type calcium channel, dihydropyridine site (Cav1.2 alpha-1C) (Q13936 whole entry): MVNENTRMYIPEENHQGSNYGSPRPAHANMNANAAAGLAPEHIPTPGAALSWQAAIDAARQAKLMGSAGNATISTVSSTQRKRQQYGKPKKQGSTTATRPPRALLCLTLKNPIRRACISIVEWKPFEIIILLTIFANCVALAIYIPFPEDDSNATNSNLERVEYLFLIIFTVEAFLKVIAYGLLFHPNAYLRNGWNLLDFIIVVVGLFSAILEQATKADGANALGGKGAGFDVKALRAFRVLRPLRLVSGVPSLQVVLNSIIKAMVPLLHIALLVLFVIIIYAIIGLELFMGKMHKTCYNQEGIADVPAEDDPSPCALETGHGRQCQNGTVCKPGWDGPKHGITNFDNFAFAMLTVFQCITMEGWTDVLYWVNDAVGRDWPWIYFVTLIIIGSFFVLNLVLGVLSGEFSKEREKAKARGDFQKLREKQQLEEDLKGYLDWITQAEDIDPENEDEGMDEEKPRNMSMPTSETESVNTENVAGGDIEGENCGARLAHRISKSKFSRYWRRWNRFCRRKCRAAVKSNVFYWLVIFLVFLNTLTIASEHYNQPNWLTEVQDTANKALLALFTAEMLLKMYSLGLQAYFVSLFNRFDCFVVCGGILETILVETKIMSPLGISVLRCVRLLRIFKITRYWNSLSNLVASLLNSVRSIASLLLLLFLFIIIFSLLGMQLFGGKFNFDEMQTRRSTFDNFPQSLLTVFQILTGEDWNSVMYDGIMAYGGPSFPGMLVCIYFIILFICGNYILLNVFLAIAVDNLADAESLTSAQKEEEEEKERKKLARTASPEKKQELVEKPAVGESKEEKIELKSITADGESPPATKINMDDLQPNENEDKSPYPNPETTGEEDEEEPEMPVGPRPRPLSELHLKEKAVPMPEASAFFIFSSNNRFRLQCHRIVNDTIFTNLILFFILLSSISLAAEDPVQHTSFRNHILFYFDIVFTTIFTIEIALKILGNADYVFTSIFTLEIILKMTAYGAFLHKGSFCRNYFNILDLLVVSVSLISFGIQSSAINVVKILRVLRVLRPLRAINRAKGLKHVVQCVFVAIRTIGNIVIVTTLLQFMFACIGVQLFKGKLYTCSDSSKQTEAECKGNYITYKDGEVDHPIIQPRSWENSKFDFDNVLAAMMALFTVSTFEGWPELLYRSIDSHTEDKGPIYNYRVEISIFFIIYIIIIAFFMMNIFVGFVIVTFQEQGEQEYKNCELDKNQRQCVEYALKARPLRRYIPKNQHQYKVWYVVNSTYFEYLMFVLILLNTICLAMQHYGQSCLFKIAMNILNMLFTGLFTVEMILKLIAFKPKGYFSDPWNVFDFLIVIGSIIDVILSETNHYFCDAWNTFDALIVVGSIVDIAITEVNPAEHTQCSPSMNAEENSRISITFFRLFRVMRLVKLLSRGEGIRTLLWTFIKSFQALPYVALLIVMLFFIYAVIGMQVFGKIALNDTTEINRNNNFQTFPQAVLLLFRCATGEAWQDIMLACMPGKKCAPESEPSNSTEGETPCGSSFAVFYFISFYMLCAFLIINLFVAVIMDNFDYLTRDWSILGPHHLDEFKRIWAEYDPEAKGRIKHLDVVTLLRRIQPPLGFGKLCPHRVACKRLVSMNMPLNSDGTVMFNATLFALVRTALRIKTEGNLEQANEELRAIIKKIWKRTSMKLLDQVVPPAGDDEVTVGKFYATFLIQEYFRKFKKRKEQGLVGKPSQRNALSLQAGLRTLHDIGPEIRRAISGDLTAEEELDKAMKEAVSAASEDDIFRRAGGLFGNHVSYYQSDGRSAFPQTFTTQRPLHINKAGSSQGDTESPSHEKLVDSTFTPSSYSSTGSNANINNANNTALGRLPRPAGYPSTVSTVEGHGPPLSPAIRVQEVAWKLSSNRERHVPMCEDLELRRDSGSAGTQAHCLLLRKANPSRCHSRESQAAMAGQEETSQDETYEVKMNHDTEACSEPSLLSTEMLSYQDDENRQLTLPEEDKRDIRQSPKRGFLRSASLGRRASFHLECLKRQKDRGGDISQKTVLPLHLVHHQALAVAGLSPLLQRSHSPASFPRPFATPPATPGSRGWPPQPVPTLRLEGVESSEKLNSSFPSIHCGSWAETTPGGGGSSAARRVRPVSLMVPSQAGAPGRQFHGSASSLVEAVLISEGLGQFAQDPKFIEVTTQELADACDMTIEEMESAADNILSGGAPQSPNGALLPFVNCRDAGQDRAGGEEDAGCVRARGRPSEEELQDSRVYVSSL

[2] = target: GABA-A receptor; anion channel (Rattus norvegicus) (UniProt O09028+P15431+P18506+P18508+P19969+P20236+P23574+P23576+P28471+P28473+P30191+P62813+P63079+P63138+Q91ZM7+Q9ES14); experiment: Inhibition of GABAA, Muscimol, Central at 10 µM in the Eurofins-Panlabs radioligand binding assay (Eurofins_assay_226500); assay type: protein-complex assay; settings: Compound concentration 10.0 uM
[3] = target: Cysteinyl leukotriene receptor 1 (Homo sapiens, UniProt Q9Y271); experiment: Inhibition of Leukotriene, Cysteinyl CysLT1 at 10 µM in the Eurofins-Panlabs radioligand binding assay (Eurofins_assay_250460); parameters: ligand concentration 0.3 nM, non-specific ligand with concentration 0.3 µM Leukotriene D4, incubation time 30 min, incubation temperature 25 °C
Sequence of Cysteinyl leukotriene receptor 1 (Q9Y271 whole entry): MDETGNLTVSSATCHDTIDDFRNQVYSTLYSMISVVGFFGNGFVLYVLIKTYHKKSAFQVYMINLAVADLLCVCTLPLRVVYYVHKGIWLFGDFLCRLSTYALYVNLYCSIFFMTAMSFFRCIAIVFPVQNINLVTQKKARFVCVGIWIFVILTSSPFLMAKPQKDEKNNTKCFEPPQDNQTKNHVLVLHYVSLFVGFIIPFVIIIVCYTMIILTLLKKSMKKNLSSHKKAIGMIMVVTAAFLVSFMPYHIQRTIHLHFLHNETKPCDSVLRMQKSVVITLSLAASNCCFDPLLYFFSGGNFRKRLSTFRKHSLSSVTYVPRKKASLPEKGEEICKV

[4] = target: Neuropeptide Y receptor type 1 (Homo sapiens) (UniProt P25929); experiment: Inhibition of Neuropeptide Y Y1 at 10 µM in the Eurofins-Panlabs radioligand binding assay (Eurofins_assay_257010)
Sequence of Neuropeptide Y receptor type 1 (Homo sapiens) (P25929 whole entry): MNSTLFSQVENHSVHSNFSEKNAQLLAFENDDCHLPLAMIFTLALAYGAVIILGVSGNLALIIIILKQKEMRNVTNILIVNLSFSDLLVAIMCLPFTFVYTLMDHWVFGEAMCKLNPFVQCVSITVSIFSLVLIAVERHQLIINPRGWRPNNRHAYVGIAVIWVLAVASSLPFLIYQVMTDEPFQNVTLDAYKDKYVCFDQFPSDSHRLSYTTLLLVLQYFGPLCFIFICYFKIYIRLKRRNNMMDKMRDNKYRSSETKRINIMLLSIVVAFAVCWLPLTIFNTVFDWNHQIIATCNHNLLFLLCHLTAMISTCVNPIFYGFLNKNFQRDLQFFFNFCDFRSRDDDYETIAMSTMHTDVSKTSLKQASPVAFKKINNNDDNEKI

[5] = target: Prostaglandin G/H synthase 1 (Homo sapiens) (UniProt P23219); experiment: Inhibition of Cyclooxygenase COX-1 at compound concentration of 10.0 uM in the Eurofins-Panlabs enzyme assay (Eurofins_assay_116020); settings: Compound concentration 10.0 uM
Phosphodiesterase 3 = Phosphodiesterase 3 (Homo sapiens, UniProt Q14432+Q13370); experiment: Inhibition of Phosphodiesterase PDE3 at compound concentration of 10.0 uM in the Eurofins-Panlabs enzyme assay (Eurofins_assay_152000); assay type: protein assay; parameters: substrate with concentration 1.01 uM [3H] cAMP + cAMP, incubation time 20 min, incubation temperature 25 C
[6] = target: T1, Alpha-2A adrenergic receptor (Homo sapiens) (UniProt P08913); experiment: (§1) Adrenergic alpha2A Eurofins-Panlabs radioligand binding assay; parameters: ligand concentration 1 nM, non-specific ligand with concentration 10 µM WB-4101, incubation time 60 min, incubation temperature 25 °C
T1 sequence (whole entry): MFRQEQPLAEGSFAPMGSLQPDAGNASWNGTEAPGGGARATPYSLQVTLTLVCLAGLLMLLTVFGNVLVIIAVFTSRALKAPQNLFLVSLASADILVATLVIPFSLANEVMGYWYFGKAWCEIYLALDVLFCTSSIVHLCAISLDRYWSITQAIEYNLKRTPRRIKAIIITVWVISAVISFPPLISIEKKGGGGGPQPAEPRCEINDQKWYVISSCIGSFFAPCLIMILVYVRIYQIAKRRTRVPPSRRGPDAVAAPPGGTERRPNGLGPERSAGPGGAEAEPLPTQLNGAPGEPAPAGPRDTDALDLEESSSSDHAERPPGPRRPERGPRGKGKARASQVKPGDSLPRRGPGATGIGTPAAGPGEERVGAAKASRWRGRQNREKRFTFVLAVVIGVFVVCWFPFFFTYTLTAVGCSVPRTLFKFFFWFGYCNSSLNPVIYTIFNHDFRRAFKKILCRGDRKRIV

[7] = target: Alpha-2A adrenergic receptor (Homo sapiens, UniProt P08913); experiment: as §1; parameters: ligand concentration 1 nM, non-specific ligand with concentration 10 µM WB-4101, incubation time 60 min, incubation temperature 25 °C
[8] = target: T2, Alpha-2C adrenergic receptor (Homo sapiens) (UniProt P18825); experiment: (§2) Adrenergic alpha2C Eurofins-Panlabs radioligand binding assay; parameters: ligand concentration 1 nM, non-specific ligand with concentration 10 µM WB-4101, incubation time 60 min, incubation temperature 25 °C
T2 sequence (whole entry): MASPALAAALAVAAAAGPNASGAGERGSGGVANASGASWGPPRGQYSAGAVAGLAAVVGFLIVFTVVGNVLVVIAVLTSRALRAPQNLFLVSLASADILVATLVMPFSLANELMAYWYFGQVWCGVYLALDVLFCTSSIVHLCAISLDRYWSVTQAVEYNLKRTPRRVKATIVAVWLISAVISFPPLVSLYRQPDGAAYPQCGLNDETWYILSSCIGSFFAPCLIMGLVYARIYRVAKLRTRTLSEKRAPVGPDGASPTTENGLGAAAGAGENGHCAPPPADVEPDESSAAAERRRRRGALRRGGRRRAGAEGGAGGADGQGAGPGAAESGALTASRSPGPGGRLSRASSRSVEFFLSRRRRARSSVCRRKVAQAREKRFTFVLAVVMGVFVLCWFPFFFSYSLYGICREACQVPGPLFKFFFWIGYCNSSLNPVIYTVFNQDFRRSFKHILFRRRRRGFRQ

[9] = target: Alpha-2C adrenergic receptor (Homo sapiens, UniProt P18825); experiment: as §2; parameters: ligand concentration 1 nM, non-specific ligand with concentration 10 µM WB-4101, incubation time 60 min, incubation temperature 25 °C
[10] = target: 5-hydroxytryptamine receptor 1B (Homo sapiens) (UniProt P28222); experiment: Inhibition of Serotonin (5-Hydroxytryptamine) 5-HT1B at 10 µM in the Eurofins-Panlabs radioligand binding assay (Eurofins_assay_271200); settings: Compound concentration 10.0 uM
Sequence of 5-hydroxytryptamine receptor 1B (Homo sapiens) (P28222 whole entry): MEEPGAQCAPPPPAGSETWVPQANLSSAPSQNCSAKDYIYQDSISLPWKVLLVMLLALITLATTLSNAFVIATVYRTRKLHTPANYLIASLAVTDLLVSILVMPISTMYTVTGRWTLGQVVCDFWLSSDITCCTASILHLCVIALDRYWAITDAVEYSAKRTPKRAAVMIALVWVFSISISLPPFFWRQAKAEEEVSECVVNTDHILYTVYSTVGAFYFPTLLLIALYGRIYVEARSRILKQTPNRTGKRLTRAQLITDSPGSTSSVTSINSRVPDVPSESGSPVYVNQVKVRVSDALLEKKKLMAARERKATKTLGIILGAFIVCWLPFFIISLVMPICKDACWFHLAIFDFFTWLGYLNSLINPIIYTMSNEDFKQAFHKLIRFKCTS

[11] = target: Substance-K receptor (Homo sapiens) (UniProt P21452); experiment: Inhibition of Tachykinin NK2 at 10 µM in the Eurofins-Panlabs radioligand binding assay (Eurofins_assay_255600); parameters: ligand concentration 0.5 nM; settings: Compound concentration 10.0 uM
Sequence of Substance-K receptor (Homo sapiens) (P21452 whole entry): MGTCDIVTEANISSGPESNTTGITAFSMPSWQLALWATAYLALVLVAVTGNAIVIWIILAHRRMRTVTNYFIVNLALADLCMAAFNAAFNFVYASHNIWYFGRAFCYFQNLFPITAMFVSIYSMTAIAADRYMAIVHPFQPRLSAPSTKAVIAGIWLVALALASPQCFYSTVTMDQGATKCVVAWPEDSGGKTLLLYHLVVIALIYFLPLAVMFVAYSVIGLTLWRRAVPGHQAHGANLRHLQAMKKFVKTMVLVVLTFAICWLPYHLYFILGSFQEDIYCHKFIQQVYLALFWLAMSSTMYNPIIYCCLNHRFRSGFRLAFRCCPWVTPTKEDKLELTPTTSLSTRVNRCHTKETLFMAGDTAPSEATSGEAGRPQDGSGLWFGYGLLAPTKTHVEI

Rattus norvegicus [12] = species on record: Rattus norvegicus; experiment: Protein Serine/Threonine Kinase, PKC, Non-Selective Eurofins-Panlabs enzyme assay; settings: Compound concentration 10.0 uM
[13] = target: Polyunsaturated fatty acid 5-lipoxygenase (Homo sapiens) (UniProt P09917); experiment: Lipoxygenase 5-LO Eurofins-Panlabs enzyme assay; settings: Compound concentration 10.0 uM
[14] = (§3) Phosphodiesterase PDE6 Eurofins-Panlabs enzyme assay; parameters: species or system Bos taurus; substrate with concentration [3H] cGMP + cGMP, incubation time 20 min, incubation temperature 25 °C
Bos taurus = species on record: Bos taurus; experiment: as §3; parameters: substrate with concentration [3H] cGMP + cGMP, incubation time 20 min, incubation temperature 25 °C
Rattus norvegicus [15] = species on record: Rattus norvegicus; experiment: Adrenergic α1, Non-selective Eurofins-Panlabs radioligand binding assay; assay type: protein assay; settings: Compound concentration 10.0 uM
[16] = target: Type-2 angiotensin II receptor (Homo sapiens) (UniProt P50052); experiment: Angiotensin AT2 Eurofins-Panlabs radioligand binding assay; assay type: protein assay; settings: Compound concentration 10.0 uM
Sequence of Type-2 angiotensin II receptor (Homo sapiens) (P50052 whole entry): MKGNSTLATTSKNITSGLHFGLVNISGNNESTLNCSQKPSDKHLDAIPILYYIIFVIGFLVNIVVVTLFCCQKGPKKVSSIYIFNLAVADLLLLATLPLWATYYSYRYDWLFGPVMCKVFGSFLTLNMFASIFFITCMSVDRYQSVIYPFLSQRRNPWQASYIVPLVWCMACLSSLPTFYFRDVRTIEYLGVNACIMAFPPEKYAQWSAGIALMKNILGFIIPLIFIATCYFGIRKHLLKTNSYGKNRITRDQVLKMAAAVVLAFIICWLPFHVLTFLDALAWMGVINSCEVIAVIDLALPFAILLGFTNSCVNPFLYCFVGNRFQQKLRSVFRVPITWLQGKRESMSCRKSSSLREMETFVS

[17] = target: Cannabinoid receptor 1 (Homo sapiens) (UniProt P21554); experiment: Cannabinoid CB1 Eurofins-Panlabs radioligand binding assay; settings: Compound concentration 10.0 uM
Sequence of Cannabinoid receptor 1 (Homo sapiens) (P21554 whole entry): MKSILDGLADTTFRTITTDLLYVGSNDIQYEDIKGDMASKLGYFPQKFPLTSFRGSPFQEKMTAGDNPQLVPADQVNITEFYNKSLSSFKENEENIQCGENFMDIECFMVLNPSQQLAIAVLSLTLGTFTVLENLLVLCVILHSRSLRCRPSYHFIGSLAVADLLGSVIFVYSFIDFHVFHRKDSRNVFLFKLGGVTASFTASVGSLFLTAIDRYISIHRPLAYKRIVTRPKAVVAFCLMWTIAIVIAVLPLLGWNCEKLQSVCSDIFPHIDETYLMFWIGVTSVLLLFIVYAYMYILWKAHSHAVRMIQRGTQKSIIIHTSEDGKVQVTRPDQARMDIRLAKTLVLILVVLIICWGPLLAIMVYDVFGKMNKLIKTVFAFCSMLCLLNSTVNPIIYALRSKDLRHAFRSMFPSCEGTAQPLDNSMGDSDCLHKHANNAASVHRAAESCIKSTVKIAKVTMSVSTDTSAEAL

[18] = target: C-C chemokine receptor type 1 (Homo sapiens) (UniProt P32246); experiment: Chemokine CCR1 Eurofins-Panlabs radioligand binding assay; settings: Compound concentration 10.0 uM
[19] = target: Prostaglandin E2 receptor EP1 subtype (Homo sapiens) (UniProt P34995); experiment: Prostanoid EP1 Eurofins-Panlabs radioligand binding assay; settings: Compound concentration 10.0 uM
[20] = target: Prostaglandin F2-alpha receptor (Homo sapiens) (UniProt P43088); experiment: Prostanoid FP Eurofins-Panlabs radioligand binding assay; parameters: ligand concentration 0.95 nM; settings: Compound concentration 10.0 uM
[21] = target: cGMP-specific 3',5'-cyclic phosphodiesterase (Homo sapiens, UniProt O76074)
[22] = target: SNF-related serine/threonine-protein kinase (Homo sapiens) (UniProt Q9NRH2); settings: Compound concentration 1000.0 nM
[23] = target: Vasopressin V1a receptor (Homo sapiens) (UniProt P37288); settings: Compound concentration 10.0 uM
Sequence of Vasopressin V1a receptor (Homo sapiens) (P37288 whole entry, looked up): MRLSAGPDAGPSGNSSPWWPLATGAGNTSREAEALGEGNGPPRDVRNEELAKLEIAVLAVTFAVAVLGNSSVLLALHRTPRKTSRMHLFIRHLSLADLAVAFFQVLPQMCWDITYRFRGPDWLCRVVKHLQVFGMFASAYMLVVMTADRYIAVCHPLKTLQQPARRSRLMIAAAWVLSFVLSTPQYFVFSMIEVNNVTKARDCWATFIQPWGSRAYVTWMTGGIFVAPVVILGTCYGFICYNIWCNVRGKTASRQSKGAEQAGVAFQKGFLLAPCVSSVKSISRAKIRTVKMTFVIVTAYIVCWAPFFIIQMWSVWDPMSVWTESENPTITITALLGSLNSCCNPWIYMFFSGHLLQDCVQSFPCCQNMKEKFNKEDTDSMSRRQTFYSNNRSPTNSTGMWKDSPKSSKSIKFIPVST

[24] = Compound concentration 100.0 uM

## O=C(O)c1cc(-c2ccc(C3CCNCC3)cc2)c2ccc(-c3ccc(C(F)(F)F)cc3)cc2c1 [PPTN]
[1]
  inhibition at 90 min, 10 µM: 20% (not active)
[2]
  inhibition: 12%
[3]
  IC50: 0.56 µM
  Ki: 0.23 µM
[4]
  inhibition: 2%
[5]
  inhibition: 4%
Phosphodiesterase 3
  IC50: 51.5 µM
Phosphodiesterase 3; Compound concentration 0.1 uM
  inhibition: -7%
Phosphodiesterase 3; Compound concentration 1.0 uM
  inhibition: 4%
Phosphodiesterase 3; Compound concentration 10.0 uM
  inhibition: 28%
Phosphodiesterase 3; [24]
  inhibition: 59%
[6]; Compound concentration 0.01 uM
  inhibition: 9%
[6]; Compound concentration 0.1 uM
  inhibition: 13%
[6]; Compound concentration 1.0 uM
  inhibition: 11%
[6]; Compound concentration 10.0 uM
  inhibition: 78%
[7]
  IC50: 4.07 µM
  Ki: 1.53 µM
[8]; Compound concentration 0.01 uM
  inhibition: -4%
[8]; Compound concentration 0.1 uM
  inhibition: -2%
[8]; Compound concentration 1.0 uM
  inhibition: 6%
[8]; Compound concentration 10.0 uM
  inhibition: 63%
[9]
  IC50: 6.88 µM
  Ki: 1 µM
[10]
  inhibition: -4%
[11]
  inhibition: 26%
Rattus norvegicus [12]
  inhibition: -5%
[13]
  inhibition: -9%
[14]
  IC50: 32.9 µM
Bos taurus; Compound concentration 0.1 uM
  inhibition: 2%
Bos taurus; Compound concentration 1.0 uM
  inhibition: 4%
Bos taurus; Compound concentration 10.0 uM
  inhibition: 35%
Bos taurus; [24]
  inhibition: 66%
Rattus norvegicus [15]
  inhibition: -4%
[16]
  inhibition: 11%
[17]
  inhibition: -6%
[18]
  inhibition: -9%
[19]
  inhibition: 4%
[20]
  inhibition: 15%
[21]
  IC50: 38.2 µM
[22]
  residual activity: 71%
[23]
  inhibition: 3%
